Tested on: MDA-MB-231 multicell spheroids, viability
Assay: Anticancer human tumor MDA-MB-231 cell line growth inhibition [PI3K];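 also: spheroids exposed to agents for seven days before reading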;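 as to viability, T/C: percent of vehicle control luminescence with DMSO treated spheroids as 100%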
Conditions: for IC50: curve of first compound; for viability, T/C: stronger effect = lower value
Description: Combinatorial screen of targeted agents with the PI3K inhibitors inavolisib, alpelisib, duvelisib, and copanlisib in multi-cell type tumor spheroids
A high-throughput screen of multi-cell type tumor spheroids was designed to identify active combinations of targeted small molecules and PI3K pathway inhibitors. Complex spheroids include a stromal component modeled by human endothelial cells (HUVEC) and fibroblasts modeled by human mesenchymal stem cells (MSCs). The concentration ranges selected for each drug and investigational agent were based upon clinically achievable concentrations if the clinical Cmax of the agent was known.
Compounds. The drugs and investigational agents: inavolisib (NSC800729), alpelisib (NSC765974), duvelisib (NSC772469), copanlisib (NSC816437), ipatasertib (NSC767898), afuresertib (NSC778305), talazoparib (NSC767125), sapanisertib (NSC764658), selumetinib (NSC741078), tovorafenib (DAY101, NSC766906), vemurafenib (NSC761431), ravoxertinib (NSC781343), sotorasib (NSC818433), MRTX1133 (NSC 836407), abemaciclib (NSC 768073), palbociclib (NSC758247), venetoclax (NSC 766270), SY5609 (NSC837396), enzalutamide (NSC755605), and darolutamide (NSC825331), were obtained from the National Cancer Institute (NCI) Developmental Therapeutics Program Chemical Repository. The FDA-approved anticancer drug set is available from the NCI Developmental Therapeutics Program. […] The stock solutions were prepared in dimethyl sulfoxide (DMSO, Sigma-Aldrich, St. Louis, MO, cat. D2650) at 800-fold the tested concentration and stored at -70 degrees C prior to their use. All drugs and investigational agents were tested over a range starting from a high concentration at or near the clinical Cmax and decreasing in half-log increments. If the clinical Cmax for an agent had not been determined, the highest concentration tested was 10 microM.
Cell Culture. All cells were maintained in an incubator at 37 degrees C and 5% CO2 with 95% humidity. The PDC lines were cultured according to standard operating procedures established by the NCI PDMR (https://pdmr.cancer.gov/sops/default.htm). All PDCs were thawed and cultured in Matrigel-coated flasks prepared with a working solution of 1X Ham's F-12 nutrient mix, without supplementation (Invitrogen, Waltham, MA, cat. 11765054), 100 U/mL penicillin-streptomycin (Invitrogen, cat. 15140122), and 2.5% Matrigel (Corning Inc., Corning, NY, cat. 354248) for the first three passages. The 354836-022-R-J1-PDC, 475296-252-R-J1-PDC, and 997726-040-R-J2-PDC lines were cultured in 6A media, which includes advanced DMEM/F-12 (Thermo Fisher Scientific, cat. 12634028), 10 mM HEPES (Thermo Fisher Scientific, cat. 15630080), 1X GlutaMAX supplement (Thermo Fisher Scientific, cat. 35050061), 0.1 mg/mL primocin (InvivoGen, San Diego, CA, cat. ant-pm-2), 10% defined fetal bovine serum, heat inactivated (HyClone Laboratories Inc., Logan, UT, cat. SH30070.03HI), 50% L-WRN conditioned media (ATCC, cat. CRL-3276), 1.25 mM N-Acetyl-L-cysteine (Sigma-Aldrich, cat. A9165), 10 mM nicotinamide (Sigma-Aldrich, cat. N0636), 1X B-27 supplement (Thermo Fisher Scientific, cat. 17504044), 1X N-2 supplement (Thermo Fisher Scientific, cat. 17502048), and 10 microM Y-27632 dihydrochloride (Tocris Bioscience, Bristol, United Kingdom, cat. 1254). The 624824-186-R-J2-PDC line was cultured in 6C/Colon 1B media, which includes all 6A media components plus 50 ng/mL human EGF recombinant protein (Thermo Fisher Scientific, cat. PHG0311). […]

[1] = second compound 0.00316 µM, first compound 0.0316 µM
[2] = second compound 0.00316 µM, first compound 0.1 µM
[3] = second compound 0.01 µM, first compound 0.0316 µM
[4] = second compound 0.01 µM, first compound 0.1 µM
[5] = second compound 0.0316 µM, first compound 0.0316 µM
[6] = second compound 0.0316 µM, first compound 0.1 µM
[7] = second compound 0.1 µM, first compound 0.0316 µM
[8] = second compound 0.1 µM, first compound 0.1 µM
[9] = second compound 0.316 µM, first compound 0.0316 µM
[10] = second compound 0.316 µM, first compound 0.1 µM
[11] = second compound 1 µM, first compound 0.0316 µM
[12] = second compound 1 µM, first compound 0.1 µM

## CC(=O)c1c(C)c2cnc(Nc3ccc(N4CCNCC4)cn3)nc2n(C2CCCC2)c1=O + CC(Nc1ccc2c(c1)OCCn1cc(N3C(=O)OCC3C(F)F)nc1-2)C(N)=O
Second compound 0.00316 µM
  IC50: 74.4 nM
Second compound 0.01 µM
  IC50: 60.6 nM
Second compound 0.0316 µM
  IC50: 34.4 nM
Second compound 0.1 µM
  IC50: 15.4 nM
Second compound 0.316 µM
  IC50: 10.1 nM
Second compound 1 µM
  IC50: 4.52 nM
Second compound 0.00316 µM, first compound 0.000316 µM
  viability, T/C: 108%
Second compound 0.00316 µM, first compound 0.001 µM
  viability, T/C: 91.5%
Second compound 0.00316 µM, first compound 0.00316 µM
  viability, T/C: 98.1%
Second compound 0.00316 µM, first compound 0.01 µM
  viability, T/C: 90.2%
[1]
  viability, T/C: 67.4%
[2]
  viability, T/C: 43.5%
Second compound 0.01 µM, first compound 0.000316 µM
  viability, T/C: 94.1%
Second compound 0.01 µM, first compound 0.001 µM
  viability, T/C: 92.6%
Second compound 0.01 µM, first compound 0.00316 µM
  viability, T/C: 95.7%
Second compound 0.01 µM, first compound 0.01 µM
  viability, T/C: 72.1%
[3]
  viability, T/C: 67%
[4]
  viability, T/C: 38.7%
Second compound 0.0316 µM, first compound 0.000316 µM
  viability, T/C: 80.1%
Second compound 0.0316 µM, first compound 0.001 µM
  viability, T/C: 75.7%
Second compound 0.0316 µM, first compound 0.00316 µM
  viability, T/C: 79.9%
Second compound 0.0316 µM, first compound 0.01 µM
  viability, T/C: 69%
[5]
  viability, T/C: 51.8%
[6]
  viability, T/C: 31.6%
Second compound 0.1 µM, first compound 0.000316 µM
  viability, T/C: 71.3%
Second compound 0.1 µM, first compound 0.001 µM
  viability, T/C: 65.7%
Second compound 0.1 µM, first compound 0.00316 µM
  viability, T/C: 65.1%
Second compound 0.1 µM, first compound 0.01 µM
  viability, T/C: 55.2%
[7]
  viability, T/C: 41.3%
[8]
  viability, T/C: 27.9%
Second compound 0.316 µM, first compound 0.000316 µM
  viability, T/C: 65.8%
Second compound 0.316 µM, first compound 0.001 µM
  viability, T/C: 64%
Second compound 0.316 µM, first compound 0.00316 µM
  viability, T/C: 61.3%
Second compound 0.316 µM, first compound 0.01 µM
  viability, T/C: 48.2%
[9]
  viability, T/C: 37.9%
[10]
  viability, T/C: 24.3%
Second compound 1 µM, first compound 0.000316 µM
  viability, T/C: 60.9%
Second compound 1 µM, first compound 0.001 µM
  viability, T/C: 55.1%
Second compound 1 µM, first compound 0.00316 µM
  viability, T/C: 51.9%
Second compound 1 µM, first compound 0.01 µM
  viability, T/C: 46.2%
[11]
  viability, T/C: 35.9%
[12]
  viability, T/C: 23.4%

## CNC(=O)c1ccc(N2C(=S)N(c3ccc(C#N)c(C(F)(F)F)c3)C(=O)C2(C)C)cc1F + CC(Nc1ccc2c(c1)OCCn1cc(N3C(=O)OCC3C(F)F)nc1-2)C(N)=O
Second compound 0.00316 µM
  IC50: > 10000 nM
Second compound 0.01 µM
  IC50: > 10000 nM
Second compound 0.0316 µM
  IC50: > 10000 nM
Second compound 0.1 µM
  IC50: > 10000 nM
Second compound 0.316 µM
  IC50: > 10000 nM
Second compound 1 µM
  IC50: > 10000 nM
[1]
  viability, T/C: 104%
[2]
  viability, T/C: 97.8%
Second compound 0.00316 µM, first compound 0.316 µM
  viability, T/C: 103%
Second compound 0.00316 µM, first compound 1 µM
  viability, T/C: 98%
Second compound 0.00316 µM, first compound 3.16 µM
  viability, T/C: 103%
Second compound 0.00316 µM, first compound 10 µM
  viability, T/C: 76.6%
[3]
  viability, T/C: 87.4%
[4]
  viability, T/C: 98%
Second compound 0.01 µM, first compound 0.316 µM
  viability, T/C: 86.6%
Second compound 0.01 µM, first compound 1 µM
  viability, T/C: 96%
Second compound 0.01 µM, first compound 3.16 µM
  viability, T/C: 79.5%
Second compound 0.01 µM, first compound 10 µM
  viability, T/C: 73%
[5]
  viability, T/C: 75.6%
[6]
  viability, T/C: 82.5%
Second compound 0.0316 µM, first compound 0.316 µM
  viability, T/C: 75%
Second compound 0.0316 µM, first compound 1 µM
  viability, T/C: 77.5%
Second compound 0.0316 µM, first compound 3.16 µM
  viability, T/C: 77.2%
Second compound 0.0316 µM, first compound 10 µM
  viability, T/C: 60.8%
[7]
  viability, T/C: 72.8%
[8]
  viability, T/C: 71.8%
Second compound 0.1 µM, first compound 0.316 µM
  viability, T/C: 70.7%
Second compound 0.1 µM, first compound 1 µM
  viability, T/C: 67.2%
Second compound 0.1 µM, first compound 3.16 µM
  viability, T/C: 64%
Second compound 0.1 µM, first compound 10 µM
  viability, T/C: 52.5%
[9]
  viability, T/C: 65.1%
[10]
  viability, T/C: 66.2%
Second compound 0.316 µM, first compound 0.316 µM
  viability, T/C: 62.2%
Second compound 0.316 µM, first compound 1 µM
  viability, T/C: 66.7%
Second compound 0.316 µM, first compound 3.16 µM
  viability, T/C: 64.7%
Second compound 0.316 µM, first compound 10 µM
  viability, T/C: 52.2%
[11]
  viability, T/C: 55.7%
[12]
  viability, T/C: 62.4%
Second compound 1 µM, first compound 0.316 µM
  viability, T/C: 62.3%
Second compound 1 µM, first compound 1 µM
  viability, T/C: 60.4%
Second compound 1 µM, first compound 3.16 µM
  viability, T/C: 58.5%
Second compound 1 µM, first compound 10 µM
  viability, T/C: 47.4%
